Measured values as given in PMC13070491, “Single-nucleus transcriptomics, pharmacokinetics, and pharmacodynamics of CDK4/6 and mTOR inhibition in a Phase 0/1 trial of recurrent high-grade glioma” (Neuro-Oncology, 2025).

Test system: GB126, GB239 and GB86 patient-derived cell lines
Experiment: In vitro single-cell RNA sequencing, analyses across the cell lines (pseudobulk differential gene expression, GSEA, non-cycling cells)
Format: cell-based, human
Details: pseudobulk, ribociclib versus control (DMSO)
Method: Patient-derived glioma stem cell lines (GSCs; GB126, GB86, and GB239) were established from resected GBM tumor tissue. Cell lines were genetically profiled for mutations and copy number aberrations using the IvySeq custom gene panel. […] GB239 was derived from a tumor sample included in this Phase 0 trial (tumor sample: 100-0039). All human GSCs were cultured as described previously.[12]
Following the fifth day of drug exposure, cells were harvested, cryopreserved to be processed at a later point, or immediately processed for single-cell RNA sequencing (10x Genomics, 3’ version 3). The single-cell RNA sequencing data were then processed via cellranger count and Seurat. Briefly, cells were filtered out based on the following criteria: minimum number of genes detected >500 and <10 000 with a maximum percentage of mitochondrial genes set to 10%. Statistical assessment was made between the malignant proportions of each cell state using a 2-sided paired t-test.
Descriptive statistics of the clinical data are included in Table 1. Comparisons between groups were conducted using a 2-sided or paired 2-sided t-test, where indicated. P < .05 was considered significant. Multiple hypothesis test corrections (ie, false discovery rate correction) were applied for snRNAseq pseudobulk differential expression analysis.

CN(C)C(=O)c1cc2cnc(Nc3ccc(N4CCNCC4)cn3)nc2n1C1CCCC1 [ribo]
log2FoldChange RTP4 (gene RTP4): 2.131
log2FoldChange (gene SAC3D1): -1.1095
log2FoldChange SEC16B (gene SEC16B): 1.622
log2FoldChange (gene SGO1): -1.732
log2FoldChange (gene SHISA8): -1.822
log2FoldChange (gene SLC2A4RG): -1.127
log2FoldChange SNCG (gene SNCG): 1.82
log2FoldChange (gene SNRPB): -1.13
log2FoldChange SP6 (gene SP6): 1.619
log2FoldChange SPTBN5 (gene SPTBN5): 1.5798
log2FoldChange (gene STARD8): -1.058
log2FoldChange (gene TCF19): -1.684
log2FoldChange (gene TEKT2): -1.108
log2FoldChange TEKT4 (gene TEKT4): 1.53
log2FoldChange TEX29 (gene TEX29): 1.88
log2FoldChange TLR8 (gene TLR8): 1.7124
log2FoldChange TM4SF4 (gene TM4SF4): 1.515
log2FoldChange TMEM88 (gene TMEM88): 1.467
log2FoldChange (gene TMPO): -1.685
log2FoldChange (gene TNFRSF13C): -1.634
log2FoldChange (gene TRPC3): -1.603
log2FoldChange (gene TUBA1B): -1.731
log2FoldChange TUSC7 (gene TUSC7): 1.959
log2FoldChange (gene TYMSOS): -1.808
log2FoldChange (gene UBE2S): -1.812
log2FoldChange (gene UHRF1): -1.689
log2FoldChange (gene WDR62): -1.744
log2FoldChange (gene XRCC2): -1.646
log2FoldChange ZCCHC23 (gene ZCCHC23): 1.565
log2FoldChange, feature AC004835.1: -1.938
log2FoldChange, feature AC011139.1: -2.033
log2FoldChange, feature AC020658.4: -2.697
log2FoldChange, feature AC027277.1: -2.37
log2FoldChange, feature AC027627.1: -3.761
log2FoldChange, feature AC079753.2: -3.036
log2FoldChange, feature AC084757.2: -2.199
log2FoldChange, feature AC087721.1: -2.244
log2FoldChange, feature AC097534.1: -1.917
log2FoldChange, feature AC099845.1: -2.325
log2FoldChange, feature AF233439.1: -2.426
log2FoldChange, feature AL023803.2: -2.112
log2FoldChange, feature AL136528.1: -3.4157
log2FoldChange, feature AL606468.1: -2.361
log2FoldChange, feature AL606500.1: -4.456
log2FoldChange, feature ANLN: -2.17
log2FoldChange, feature APOLD1: -2.2948
log2FoldChange, feature ARHGEF16: -2.5327
log2FoldChange, feature ARHGEF39: -2.785
log2FoldChange, feature ASF1B: -2.413
log2FoldChange, feature ASPM: -2.923
log2FoldChange, feature AURKA: -1.946
log2FoldChange, feature AURKB: -5.69
log2FoldChange, feature BIRC5: -4.128
log2FoldChange, feature BUB1B: -2.255
log2FoldChange, feature C1QL1: -2.176
log2FoldChange, feature CCNA1: -1.944
log2FoldChange, feature CCNA2: -3.66
log2FoldChange, feature CCNB1: -2.309
log2FoldChange, feature CCNB2: -2.58
log2FoldChange, feature CDC20: -2.615
log2FoldChange, feature CDC25C: -2.251
log2FoldChange, feature CDC45: -1.967
log2FoldChange, feature CDCA2: -2.288
log2FoldChange, feature CDCA3: -4.424
log2FoldChange, feature CDCA5: -2.481
log2FoldChange, feature CDCA8: -2.683
log2FoldChange, feature CDK1: -3.117
log2FoldChange, feature CDT1: -2.6933
log2FoldChange, feature CENPE: -2.304
log2FoldChange, feature CENPF: -2.646
log2FoldChange, feature CENPM: -2.763
log2FoldChange, feature CENPU: -1.962
log2FoldChange, feature CEP55: -2.857
log2FoldChange, feature CIT: -1.908
log2FoldChange, feature CKAP2L: -3.667
log2FoldChange, feature COL2A1: -2.114
log2FoldChange, feature CSRP3-AS1: -2.408
log2FoldChange, feature DEPDC1: -2.44
log2FoldChange, feature DHRS2: -3.141
log2FoldChange, feature DIAPH3: -2.737
log2FoldChange, feature DIAPH3-AS1: -2.318
log2FoldChange, feature DLGAP5: -4.307
log2FoldChange, feature DUSP9: -1.8912
log2FoldChange, feature E2F1: -2.143
log2FoldChange, feature E2F2: -2.717
log2FoldChange, feature E2F7: -1.962
log2FoldChange, feature E2F8: -4.471
log2FoldChange, feature EMILIN3: -2.469
log2FoldChange, feature ESCO2: -3.335
log2FoldChange, feature ESPL1: -2.787
log2FoldChange, feature EXO1: -2.588
log2FoldChange, feature FAM72C: -1.941
log2FoldChange, feature FAM83D: -2.106
log2FoldChange, feature FAM111B: -3.61
log2FoldChange, feature FBLN7: -2.095
log2FoldChange, feature FBXO5: -2.254
log2FoldChange, feature FOXM1: -3.356
log2FoldChange, feature FOXN4: -2.7907
log2FoldChange, feature GTSE1: -3.691
log2FoldChange, feature H2AFX: -1.9706
log2FoldChange, feature HIST1H1B: -4.86
log2FoldChange, feature HIST1H1D: -3.125
log2FoldChange, feature HIST1H1E: -2.149
log2FoldChange, feature HIST1H2AB: -3.666
log2FoldChange, feature HIST1H2AD: -2.176
log2FoldChange, feature HIST1H2AG: -3.09
log2FoldChange, feature HIST1H2AH: -3.181
log2FoldChange, feature HIST1H2AI: -3.193
log2FoldChange, feature HIST1H2AJ: -3.606
log2FoldChange, feature HIST1H2AK: -2.038
log2FoldChange, feature HIST1H2AL: -4.067
log2FoldChange, feature HIST1H2AM: -2.962
log2FoldChange, feature HIST1H2BB: -4.24
log2FoldChange, feature HIST1H2BF: -2.791
log2FoldChange, feature HIST1H2BH: -2.674
log2FoldChange, feature HIST1H2BI: -3.141
log2FoldChange, feature HIST1H2BK: -2.1572
log2FoldChange, feature HIST1H2BL: -3.055
log2FoldChange, feature HIST1H2BM: -3.899
log2FoldChange, feature HIST1H2BO: -4.102
log2FoldChange, feature HIST1H3A: -2.494
log2FoldChange, feature HIST1H3B: -4.012
log2FoldChange, feature HIST1H3C: -3.43
log2FoldChange, feature HIST1H3D: -3.164
log2FoldChange, feature HIST1H3F: -4.011
log2FoldChange, feature HIST1H3G: -5.89
log2FoldChange, feature HIST1H3I: -2.396
log2FoldChange, feature HIST1H4A: -2.4627
log2FoldChange, feature HIST1H4B: -3.363
log2FoldChange, feature HIST1H4C: -2.564
log2FoldChange, feature HIST1H4D: -2.3219
log2FoldChange, feature HIST1H4L: -3.364
log2FoldChange, feature HIST2H2AA4: -2.973
log2FoldChange, feature HIST2H2AB: -2.432
log2FoldChange, feature HIST2H2AC: -2.094
log2FoldChange, feature HIST2H3D: -3.112
log2FoldChange, feature HIST2H4B: -3.0547
log2FoldChange, feature HJURP: -3.812
log2FoldChange, feature HMGB2: -3.4975
log2FoldChange, feature HMGN2: -1.988
log2FoldChange, feature HMMR: -2.398
log2FoldChange, feature HMMR-AS1: -1.986
log2FoldChange, feature IQGAP3: -3.825
log2FoldChange, feature KIF2C: -3.46
log2FoldChange, feature KIF4A: -3.264
log2FoldChange, feature KIF11: -2.445
log2FoldChange, feature KIF14: -1.93
log2FoldChange, feature KIF15: -2.295
log2FoldChange, feature KIF18B: -3.458
log2FoldChange, feature KIF20A: -5.621
log2FoldChange, feature KIF23: -2.582
log2FoldChange, feature KIFC1: -3.063
log2FoldChange, feature KNL1: -2.569
log2FoldChange, feature LHX2: -2.082
log2FoldChange, feature LINC00243: -2.438
log2FoldChange, feature LINC01647: -5.161
log2FoldChange, feature LINC01775: -2.182
log2FoldChange, feature LMNB1: -1.981
log2FoldChange, feature MCM10: -2.2
log2FoldChange, feature MELK: -2.093
log2FoldChange, feature MIR924HG: -2.274
log2FoldChange, feature MKI67: -6.243
log2FoldChange, feature MUC22: -3.844
log2FoldChange, feature MXD3: -2.803
log2FoldChange, feature MYB: -2.501
log2FoldChange, feature MYBL2: -3.875
log2FoldChange, feature NCAPG: -2.9227
log2FoldChange, feature NCAPH: -2.746
log2FoldChange, feature NDC80: -2.667
log2FoldChange, feature NEIL3: -3.743
log2FoldChange, feature NEK2: -3.576
log2FoldChange, feature NEURL1B: -1.929
log2FoldChange, feature NMU: -2.574
log2FoldChange, feature NRM: -1.8865
log2FoldChange, feature NRTN: -3.311
log2FoldChange, feature NT5DC4: -2.34
log2FoldChange, feature NUSAP1: -3.196
log2FoldChange, feature NXPH2: -2.198
log2FoldChange, feature PAK6: -1.969
log2FoldChange, feature PAPOLB: -2.347
log2FoldChange, feature PBK: -3.281
log2FoldChange, feature PCLAF: -3.5822
log2FoldChange, feature PCNA: -1.969
log2FoldChange, feature PIF1: -3.124
log2FoldChange, feature PIMREG: -3.009
log2FoldChange, feature PKMYT1: -2.904
log2FoldChange, feature PLK1: -3.608
log2FoldChange, feature PRC1: -2.44
log2FoldChange, feature PRIM1: -2.274
log2FoldChange, feature PTTG1: -2.767
log2FoldChange, feature RAD51AP1: -1.918
log2FoldChange, feature RAD54L: -1.967
log2FoldChange, feature RPP25: -1.919
log2FoldChange, feature RRM2: -5.156
log2FoldChange, feature SAPCD2: -1.989
log2FoldChange, feature SDC1: -2.261
log2FoldChange, feature SHCBP1: -2.035
log2FoldChange, feature SKA1: -3.026
log2FoldChange, feature SLC7A3: -2.68
log2FoldChange, feature SPAG5: -2.024
log2FoldChange, feature SPC24: -2.603
log2FoldChange, feature SPC25: -3.836
log2FoldChange, feature TACC3: -2.439
log2FoldChange, feature TICRR: -2.318
log2FoldChange, feature TK1: -2.815
log2FoldChange, feature TMPO-AS1: -2.127
log2FoldChange, feature TMSB15A: -2.211
log2FoldChange, feature TOP2A: -4.082
log2FoldChange, feature TP73: -3.442
log2FoldChange, feature TPX2: -2.42
log2FoldChange, feature TROAP: -3.212
log2FoldChange, feature TTK: -1.967
log2FoldChange, feature TYMS: -2.957
log2FoldChange, feature UBE2C: -3.754
log2FoldChange, feature UBE2T: -1.955
log2FoldChange, feature WDR76: -2.235
log2FoldChange, feature ZWINT: -1.901
